Reference: article PMC9324262, “Selective CDK9 Inhibition by Natural Compound Toyocamycin in Cancer Cells” (Cancers, 2022)

Assays:
YB5 cells [1] = assay: GFP reactivation in YB5 cell-based system (flow cytometry); set-up: species or system human; conditions: for GFP expression in YB5 cells, adenosine analogues: Figure S2; for GFP+ cells: alone, screen control
Protocol: YB5 cells are derived from SW48 cells (human colon cancer cell line), and contain a single insertion of a DNA hypermethylated cytomegalovirus (CMV) promoter driving the green fluorescent protein (GFP) gene, as previously described. YB5 cells are cultured in L-15 medium supplemented with 10% fetal bovine serum and grown in log-phase in 1% CO2 atmosphere. YB5 cells were authenticated by DNA fingerprinting prior to drug screening and validation experiments. GFP expression in YB5 cells is silenced in >99.9% of the cells due to the CMV promoter DNA hypermethylation and repressive chromatin marks around the transcriptional start site. The human HCT116 colon cancer-derived GFP-reporter system, comprising a GFP gene under the control of an endogenously hypermethylated SFRP1 gene promoter, was kindly provided by Dr. Stephen Baylin (Johns Hopkins University). These cells are cultured in McCoy’s 5A medium supplemented with 10% fetal bovine serum and grown in log-phase in 5% CO2 atmosphere at 37 °C. The 451-Lu-BR melanoma cells were a kind gift from Dr. Raza Zaidi (Fels Institute for Cancer Research and Molecular Biology, Temple University School of Medicine, Philadelphia). These cells are derived from parental 451-LU cells that have acquired resistance to BRAF inhibitors. The 451-Lu-BR cells were cultured at 37 °C in Dulbecco’s Modified Eagle Medium (DMEM) supplemented with 10% fetal bovine serum, L-alanyl-L-glutamine (2 mM), and gentamycin (50 µg/mL) in 5% CO2 at 37 °C. The natural drug library (natural product set II) containing 120 compounds was obtained from the National Cancer Institute Developmental Therapeutics Program. Natural compounds were dissolved in DMSO (10 mM) in 96-well plates that were kept at −80°C until use. Toyocamycin, analogues of toyocamycin (sangivamycin, tubercidin, 3-deaza-adenosine, DZNep), CDK inhibitors, and epigenetic drugs (decitabine, SAHA, trichostatin A, depsipeptide) were purchased from Sigma-Aldrich (St. Louis, MO, USA,) for validation studies, dissolved in DMSO, and kept at −80 °C until use.
YB5 cells were seeded at 30,000 cell/mL in 96-well plates (6000 cells/well) and treated 3 days after seeding. Cells were exposed to 120 natural compounds in 5 different experimental conditions: (1) 72 h exposure at 10 µM followed by 24 h recovery period prior to analysis; (2) 24 h treatment at 50 µM prior to analysis; (3) 72 h exposure at 10 µM of the compound library followed by 24 h treatment with HDAC inhibitor trichostatin A (200 nM) prior to analysis; (4) 72 h exposure at 10 µM in simultaneous combination with decitabine (50 nM) followed by 24 h recovery period prior to analysis; and (5) 72 h treatment with decitabine (50 nM) followed by 24 h exposure with the natural compound library (50 µM) prior to analysis. The scheme of different dose schedules is shown Figure S1A. During screening, drugs and cell culture media were replaced every day. To ensure the quality and the reproducibility of the screen, each 96-well plate was designed to include 80 natural compounds, 4 untreated wells, 4 wells treated with decitabine (50 nM, 72 h), 4 wells treated with trichostatin A (200 nM, 24 h), and their combination with decitabine (50 nM, 72 h) followed by trichostatin A treatment (200 nM, 24 h) prior to flow cytometry analysis. The percentage of GFP-expressing cells in control wells (untreated or treated with known epigenetic drugs) was measured and was reproducible between different plates.
After treatment, YB5 cells were trypsinized for 15 min and resuspended in L-15 media containing propidium iodide (PI) to stain dead cells. GFP expression and PI staining were quantified by a BD LSR II flow cytometer (BD Biosciences, San Jose, CA, USA). A maximum of 10,000 cells was analyzed per well. Validations were performed using a Millipore Guava flow cytometer (EMD, Millipore, Burlington, MA, USA). […]

CDK9 = conditions: cited from earlier work
RNA-Pol II Ser2-P = assay: Western blot, RNA Pol II and phospho-Pol II Ser2; type: cell-based, human; conditions: HCT116, 1–10 µM, 16 h
Protocol: YB5 cells were harvested in 50 mM Tris-HCl, 1% NP-40, 1 mM EDTA, 1 mM EGTA, 0.25% sodium deoxycholate, 150 mM NaCl, 50 mM sodium fluoride, and 1X Complete protease cocktail (Roche, Basel, Switzerland) with 1 mM PMSF. The total protein concentration was measured in all samples by standard BCA protocol (Pierce-23225, Thermo Scientific, Waltham, MA, USA) to ensure that an equal amount of protein was added to each sample. Protein extracts were run on 12% SDS–PAGE precast gels (Bio-Rad, Hercules, CA, USA, 345-0118). Proteins were transferred to polyvinylidene difluoride (PVDF) membranes in 10 mmol/L CAPS (pH-11) containing 10% methanol and detected by using specific primary antibodies, horseradish peroxidase–conjugated secondary antibodies (GE Healthcare, Chicago, IL, USA), and an enhanced chemiluminescence reagent (Pierce). PVDF membranes were incubated with specific primary antibodies (actin—A5441, Sigma, St. Louis, MO, USA; HA-tagged—H9608, Sigma; FLAG-tagged—F3165, Sigma). FLAG- and HA-tagged CDK9 plasmids were a generous gift from Dr Bassel E. Sawaya (Temple University). For CDK9 target modulation, HCT116 colon cancer cells were treated with toyocamycin or known CDK9 inhibitor BAY1251152 (Selleckchem, Houston, TX, USA). Whole cell extracts were obtained by lysing cells with 25 mM Tris (pH 7.3) and 1% sodium dodecyl sulfate (SDS). After sonication, total protein concentrations were determined using Bradford protein assay. The following primary antibodies were used to investigate the effect of CDK9 inhibition: Pol II against the N-term region (sc-55492, Santa Cruz, Dallas, TX, USA), Pol II against the C-term region (39097, Active motif, Carlsbad, CA, USA), Pol II phospho CTD ser2 (14-9802-82, Invitrogen, Waltham, MA, USA), Rb (ab181616, Abcam, Cambridge, UK), Rb phospho T826 (ab133446, Abcam, Cambridge, UK), CDK9 (ab39098, Abcam, Cambridge, UK), and actin (ab1801, Abcam, Cambridge, UK). Images were acquired with an Image Quant LAS4000 device from GE Healthcare Life Sciences. Band intensity quantifications were calculated using ImageJ software, edition 1.53 [27].

YB5 cells [2] = assay: anchorage-dependent clonogenic assay; type: cell-based, human; conditions: 10–50 nM, 72 h treatment, 2 weeks drug-free
Protocol: Two hundred YB5 cells were seeded per well in 6-well plates. On the following day, YB5 cells were treated with toyocamycin for 24 h or 72 h. Decitabine (10–50 nM for 72 h) was used as a positive control for the loss of clonogenic potential. Drugs and media were replaced each day. After treatment, media was removed. YB5 cells were grown in drug-free media for 2 weeks to allow visible colony formation prior to colony staining (0.5% methylene blue in 50% methanol). YB5 colonies were counted manually.

Row | SMILES | GFP expression in YB5 cells, adenosine analogues (YB5 cells [1]; 24 h) | CDK9 inhibition IC50 values (CDK9) | also measured
1 | Nc1nccc2c1ncn2[C@@H]1O[C@H](CO)[C@@H](O)[C@H]1O [3-deaza-adenosine] | only sangivamycin induced GFP expression |  | 
2 | CC(=O)N[C@@H]1CCC[C@H](C(=O)Nc2cc(-c3cnn4c3CC(C)(C)C4)c(Cl)cn2)C1 [AZD-4573] |  | low nanomolar range | 
3 | COc1cc(F)ccc1-c1cc(Nc2cc(CS(C)(=N)=O)ccn2)ncc1F (stereo not shown) [BAY1251152] |  |  | RNA Pol II band intensity, Pol II C-terminal antibody (RNA-Pol II Ser2-P): reduced the RNA Pol II band intensity; RNA-Pol II ser 2 phosphorylation (RNA-Pol II Ser2-P): significantly reduced
4 | Nc1n[nH]c(N)c1N=Nc1ccc(O)cc1 [CAN-508] |  | low nanomolar range | 
5 | Nc1nccc2c1ncn2C1C=C(CO)C(O)C1O (stereo not shown) [DZNep] | only sangivamycin induced GFP expression |  | 
6 | COc1ccccc1-c1cc(Nc2cccc(CS(N)(=O)=O)c2)ncn1 [LDC000067] |  | low nanomolar range | 
7 | Nc1nc(N[C@H]2C[C@@H]3CC[C@H]2C3)sc1C(=O)c1ccccc1[N+](=O)[O-] [MC180295] |  |  | GFP fluorescence, % of YB5 cells (YB5 cells [1]; 500 nM, 48 h): about 10%
8 | CC(C)(C)c1cnc(CSc2cnc(NC(=O)C3CCNCC3)s2)o1 [SNS-032] |  | low nanomolar range | 
9 | Nc1ncn([C@H]2C[C@H](O)[C@@H](CO)O2)c(=O)n1 [decitabine, 5-aza-2′-deoxycytidine] |  |  | GFP+ cells (YB5 cells [1]; 50 nM, 72 h): about 15%; colony formation (YB5 cells [2]): still produced colonies
10 | NC(=O)c1cn([C@@H]2O[C@H](CO)[C@@H](O)[C@H]2O)c2ncnc(N)c12 [sangivamycin] | induced GFP expression in YB5 cells, but to a lesser extent than toyocamycin |  | GFP expression in YB5 cells, adenosine analogues (YB5 cells [1]; 24 h, listed as Sangivamycin): weak GFP activation; CDK9 inhibition (CDK9): direct CDK9 inhibition
11 | CC(/C=C/C(=O)NO)=C\[C@@H](C)C(=O)c1ccc(N(C)C)cc1 [trichostatin A] |  |  | GFP+ cells (YB5 cells [1]; 200 nM, 24 h): about 6%
12 | Nc1ncnc2c1ccn2[C@@H]1O[C@H](CO)[C@@H](O)[C@H]1O [tubercidin] | only sangivamycin induced GFP expression |  | 
